This is an account of results in EP4491625A1, “BENZO BICYCLIC COMPOUND, AND PREPARATION METHOD AND APPLICATION THEREOF” (Guangzhou Unirise Pharmaceutical Co., Ltd., priority 2022, dated 2023).

Structures can show the parent of a compound that is named as a salt.

A word on the EC50: it is the midpoint of the concentration-response curve. A word on the AUC(0-t): it is exposure summed from dosing to a finite time, without extrapolation to infinity. A higher AUC(0-t) goes with more exposure. One may read the Cmax as the highest concentration seen after dosing. Usually Tmax stands for the time from dosing to the highest level. By half-life is commonly meant the time in which the quantity being followed falls by half.

The target in one data set is T1, GLP-1 receptor (Homo sapiens, UniProt P43220).
T1 construct: host or cells: HEK293
T1 sequence (P43220 24-463): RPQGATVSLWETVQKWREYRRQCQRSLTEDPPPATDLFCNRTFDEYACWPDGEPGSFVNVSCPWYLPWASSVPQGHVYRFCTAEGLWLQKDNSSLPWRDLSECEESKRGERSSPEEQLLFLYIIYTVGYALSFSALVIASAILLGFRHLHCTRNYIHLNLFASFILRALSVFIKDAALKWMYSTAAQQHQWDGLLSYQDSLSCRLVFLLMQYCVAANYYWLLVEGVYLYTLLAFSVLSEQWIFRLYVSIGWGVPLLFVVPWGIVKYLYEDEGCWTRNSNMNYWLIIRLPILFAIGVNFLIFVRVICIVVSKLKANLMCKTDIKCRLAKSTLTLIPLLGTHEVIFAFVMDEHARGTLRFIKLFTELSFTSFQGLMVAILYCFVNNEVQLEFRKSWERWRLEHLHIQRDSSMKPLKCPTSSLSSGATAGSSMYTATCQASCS
Kind of data set: cAMP detection assay of agonistic effect in HEK293 cells with high expression of hGLP-1R. The note with it: agonistic effect, cAMP, HEK293 cells with high expression of hGLP-1R; read-out: EC50. The data set is classed as cell-based. As for the experimental part:
The cells were constructed by Wuxi New Drug Development Co., Ltd. Shanghai.
The compound was prepared with DMSO to a working concentration of 100µM or 10µM. 10 points of 4-fold dilution (maximum concentration of 1000nM or 100nM after dilution) was done with Bravo V11.
The compound to be tested was diluted 4 times with Bravo to obtain 10 concentrations and the initial concentration was 100µM by Bravo V11. The initial concentration was 100µM.

Data set [1] in a line: Pharmacokinetic study in rats (intravenous or gavage, plasma LC-MS/MS). The data set is classed as in vivo. The following applies: SD rats; for F: po 5 mg/kg versus iv 1 mg/kg; for AUC(0-t) / Cmax / Tmax / half-life: rat, plasma. As for the experimental part: SD rats: male, 6-8 weeks old, weighing 200-300 g, purchased from SPF ( Beijing ) Biotechnology Co.,Ltd..
At each PK sampling point, 200 µL of whole blood was collected into EDTA-K2 anticoagulant blood tubes and centrifuged at 4°C for 30 min to obtain plasma. Whole blood samples were placed on wet ice before centrifugation. All collected plasma samples were stored on dry ice or frozen until analyzed.
Approximately1 mg of the compound of the present application was weighed and dissolved in DMSO, vortexed and sonicated to obtain a 1 mg/mL standard stock solution. The standard stock solution was diluted with 50% aqueous acetonitrile to obtain standard working solutions with concentrations of 5, 10, 20, 50, 100, 500, 1000, 5000 and 10000 ng/mL. QC working solutions with concentrations of 10, 20, 500 and 8000 ng/mL were prepared using the same dilution method. These QC samples were prepared on the day of analysis in the same way as the standard curve samples.5 µL of standard working solution with concentrations of (5, 10, 20, 50, 100, 500, 1000, 5000 and 10000 ng/mL) was added to 50 µL of blank SD rat plasma to obtain a total volume of 55 µL with concentrations of 0.5-1000 ng/mL (0.5, 1, 2, 5, 10, 50, 100, 500, and 1000 ng/mL) of standard curve samples. QC samples with concentrations of (1 ng/ml (low-1) and 2 ng/ml (low-2), 50 ng/ml (medium), 800 ng/ml (high)) were configured separately.
55 µL of standard samples, 55 µL of QC samples or 55 µL of unknown samples (50 µL of plasma samples added to 5 µL of 50% aqueous acetonitrile) were added to 200 µL of acetonitrile containing an internal standard (dexamethasone) to precipitate proteins. […] The supernatant was taken and diluted 3-fold with water, and 5 µL of the supernatant dilution was injected into the LC-MS/MS system for quantitative analysis under the following assay conditions:
Column: HALO 90A Phenly-Hexyl, 2µm 2.1×30mm.
Pharmacokinetic parameters were calculated by the […] of Phoenix TM Winnonlin® 8.3 software.

Data set [2] in a line: Human liver microsome stability test. The data set is classed as in vitro ADME. The following applies: pH 7.4; human liver microsomes 0.5 mg/mL, 1 µM compound, NADPH, 37 °C. As for the experimental part: Preparation of compound working solutions: A high-concentration stock solution of the subject and control drug verapamil powder was prepared in DMSO and diluted to a working solution of 100 µM with DMSO before use, with a final concentration of 1 µM of the subject and verapamil.
Preparation of phosphate buffer salt (100 mM, pH 7.4): 7.098 g of disodium hydrogen phosphate was weighed and dissolved ultrasonically in 500 mL of purified water as solution A. 3.400 g of potassium dihydrogen phosphate was weighed and dissolved ultrasonically in 250 mL of purified water as solution B. Solution B was added to the inside of solution A to give a pH of 7.4.
Preparation of 10 mM NADPH: An appropriate amount of NADPH is now weighed before the experiment and a working solution of 10 mM concentration is prepared from phosphate solution.
Preparation of the incubation system: The incubation system was prepared according to the following table, and the incubation system was preheated in a water bath at 37 °C for 10 minutes before use.
Transfer 25 µL of NADPH or phosphate buffer salt to the above incubation system and add 2.5 µL of 100 µM subject or verapamil. For NADPH-added samples, double-parallel preparations were performed; for NADPH-negative samples, single-parallel preparations were performed.
30 µL of the suspension was taken at 0.5, 5, 15, 30, and 60 min, respectively. The reaction was terminated by adding 150 µL of acetonitrile containing the internal standard and vortexed for 10 min.
This was followed by centrifugation at 3220 g for 40 min for protein precipitation. 100 µL of supernatant was transferred to the injection plate and mixed with 100 µL of pure water for UPLC-MS/MS analysis.
All data calculations were performed by Microsoft Excel software. Peak areas were detected by extracted ion mapping. The in vitro half-life (t1/2) of the parent drug was assayed by fitting the natural logarithm of the percentage elimination of the parent drug linearly with time.
The in vitro half-life (t1/2) was calculated by slope: t1/2 = 0.693 / k
The in vitro clearance (in µL/min/mg) was calculated using the following formula: CLint =0.693/ t1/2 * (Incubation system volume (μL) / protein content (mg)) [formula]
Table 3 the experimental results of human liver microsome of the compounds provided in some examples of the present invention

With `O=C(O)c1ccc2nc(C[C@H]3CC=C(c4cccc(OCc5ccc(Cl)c6cc(F)oc56)n4)CC3)n(C[C@@H]3CCO3)c2c1` [Compound 36B, 2-(((R)-4-(6-((4-chloro-2-fluorobenzofuran-7-yl)methoxy)pyridin-2-yl)cyclohex-3-en-1-yl)methyl)-1-(((S)-oxetan-2-yl)methyl)-1H-benzo[d]imidazole-6-carboxylic acid], at GLP-1 receptor, the EC50 was found to be 220 pM.
Turning to `O=C(O)c1ccc2nc(CC3CC=C(c4cccc(OCc5ccc(Cl)c6ccoc56)n4)CC3)n(C[C@@H]3CCO3)c2n1` (stereo partly drawn) [Compound 34, 2-((4-(6-((4-chlorobenzofuran-7-yl)methoxy)pyridin-2-yl)cyclohex-3-en-1-yl)methyl)-3-(((S)-oxetan-2-yl)methyl)-3H-imidazo[4,5-b]pyridine-5-carboxylic acid], the EC50 at GLP-1 receptor was 200 pM.
With `CCn1cncc1Cn1c(CC2CC=C(c3cccc(OCc4ccc(Cl)c5cc(F)oc45)n3)CC2)nc2ccc(C(=O)O)cc21` (stereo not drawn) [Compound 29, 2-((4-(6-((4-chloro-2-fluorobenzofuran-7-yl)methoxy)pyridin-2-yl)cyclohex-3-en-1-yl)methyl)-1-((1-ethyl-1H-imidazol-5-yl)methyl)-1H-benzo[d]imidazole-6-carboxylic acid hydrochloride], the EC50 at GLP-1 receptor was 220 pM.
Molecule `O=C(O)c1ccc2nc(CC3CC=C(c4cccc(OCc5ccc(Cl)c6cc(Cl)oc56)n4)CC3)n(C[C@@H]3CCO3)c2c1` (stereo partly drawn) [Compound 25, 2-((4-(6-((2,4-dichlorobenzofuran-7-yl)methoxy)pyridin-2-yl)cyclohex-3-en-1-yl)methyl)-1-(((S)-oxetan-2-yl)methyl)-1H-benzo[d]imidazole-6-carboxylic acid] yielded a F in data set [1] of 38.8%. Moreover, in data set [1] (male, iv, 1 mg/kg), the area under the curve AUC(0-t) worked out at 1250 ng·h/mL, the highest level (Cmax) was 1080 ng/mL, the time of peak concentration (Tmax) is 0.083 h and the half-life was 2.57 h. In data set [1] (male, po, 5 mg/kg), the AUC(0-t) turned out to be 2440 ng·h/mL, the Cmax turned out to be 460 ng/mL, the time to peak (Tmax) stood at 4 h and the half-life is 5.29 h.
In data set [2], `O=C(O)c1cc2c(nc(CC3CC=C(c4cccc(OCc5ccc(Cl)c6cc(F)oc56)n4)CC3)n2C[C@@H]2CCO2)s1` (stereo partly drawn) [Compound 8, 2-((4-(6-((4-chloro-2-fluorobenzofuran-7-yl)methoxy)pyridin-2-yl)cyclohex-3-en-1-yl)methyl)-1-(((S)-oxetan-2-yl)methyl)-1H-thieno[2,3-d]imidazole-5-carboxylic acid] displayed a half-life at 1 µM of 3 h.
The molecule `O=C(O)c1ccc2nc(C[C@H]3CC[C@H](c4cccc(OCc5ccc(Cl)c6cc(Cl)oc56)n4)CC3)n(C[C@@H]3CCO3)c2c1` [Compound 38B, 2-(((1r,4S)-4-(6-((2,4-dichlorobenzofuran-7-yl)methoxy)pyridin-2-yl)cyclohexyl)methyl)-1-(((S)-oxetan-2-yl)methyl)-1H-benzo[d]imidazole-6-carboxylic acid] had a F in data set [1] of 21.1%. Moreover, in data set [1] (iv, 1 mg/kg), the AUC(0-t) was 3940 ng·h/mL, the Cmax was 5280 ng/mL, the Tmax was determined as 0.083 h and the half-life was 1.45 h. In data set [1] (po, 5 mg/kg), the AUC(0-t) was 4130 ng·h/mL, the Cmax came out at 1400 ng/mL, the Tmax worked out at 1.17 h and the half-life was 2.62 h.
Regarding `O=C(O)c1ccc2nc(CC3CC=C(c4ncc(F)c(OCc5ccc(Cl)c6ccoc56)n4)CC3)n(C[C@@H]3CCO3)c2c1` (stereo partly drawn) [Compound 3, 2-((4-(4-((4-chlorobenzofuran-7-yl)methoxy)-5-fluoropyrimidin-2-yl)cyclohex-3-en-1-yl)methyl)-1-(((S)-oxetan-2-yl)methyl)-1H-benzo[d]imidazole-6-carboxylic acid], the concentration for a half-maximal effect (EC50) at GLP-1 receptor was 260 pM. The half-life at 1 µM in data set [2] came to 1.84 h.
Turning to `O=C(O)c1ccc2nc(CC3CC=C(c4ncc(F)c(OCc5ccc(Cl)c6cc(F)oc56)n4)CC3)n(C[C@@H]3CCO3)c2c1` (stereo partly drawn) [Compound 31], the EC50 at GLP-1 receptor is 190 pM. In data set [2], this molecule yielded a half-life at 1 µM of 2.77 h.
Turning to `O=C(O)c1ccc2nc(CC3CCC(c4cccc(OCc5ccc(Cl)c6cc(F)oc56)n4)CC3)n(C[C@@H]3CCO3)c2c1` (stereo partly drawn) [Compound 7, (5)-2-((4-(6-((4-chloro-2-fluorobenzofuran-7-yl)methoxy)pyridin-2-yl)cyclohexyl)methyl)-1-(oxetan-2-ylmethyl)-1H-benzo[d]imidazole-6-carboxylic acid], the EC50 on GLP-1 receptor was 220 pM.
For the molecule `N#CCC1(Cn2c(CC3CC=C(c4cccc(OCc5ccc(Cl)c6cc(F)oc56)n4)CC3)nc3ccc(C(=O)O)cc32)CC1` (stereo not drawn) [Compound 28, 2-((4-(6-((4-chloro-2-fluorobenzofuran-7-yl)methoxy)pyridin-2-yl)cyclohex-3-en-1-yl)methyl)-1-((1-(cyanomethyl)cyclopropyl)methyl)-1H-benzo[d]imidazole-6-carboxylic acid], the EC50 on GLP-1 receptor amounted to 70 pM. In data set [2], this molecule displayed a half-life at 1 µM greater than 3.08 h.
In data set [2], `O=C(O)c1ccc2nc(CC3CC=C(c4ncc(F)c(OCc5ccc(Cl)c6cc(F)oc56)n4)CC3)n(C[C@@H]3CCO3)c2n1` (stereo partly drawn) [Compound 5, 2-((4-(4-((4-chloro-2-fluorobenzofuran-7-yl)methoxy)-5-fluoropyrimidin-2-yl)cyclohex-3-en-1-yl)methyl)-3-(((S)-oxetan-2-yl)methyl)-3H-imidazo[4,5-b]pyridine-5-carboxylic acid] showed a half-life at 1 µM greater than 3.08 h.
As to `O=C(O)c1ccc2nc(CC3CC=C(c4cccc(OCc5ccc(Cl)c6cc(F)oc56)n4)CC3)n(C[C@@H]3CCO3)c2n1` (stereo partly drawn) [Compound 6, 2-((4-(6-((4-chloro-2-fluorobenzofuran-7-yl)methoxy)pyridin-2-yl)cyclohex-3-en-1-yl)methyl)-3-(((S)-oxetan-2-yl)methyl)-3H-imidazo[4,5-b]pyridine-5-carboxylic acid], in data set [2], the half-life at 1 µM worked out at 1.86 h.
Regarding `O=C(O)c1cc(F)c2nc(C[C@H]3CC[C@H](c4cccc(OCc5ccc(Cl)c6cc(F)oc56)n4)CC3)n(C[C@@H]3CCO3)c2c1` [Compound 39, 2-(((1r,4S)-4-(6-((4-chloro-2-fluorobenzofuran-7-yl)methoxy)pyridin-2-yl)cyclohexyl)methyl)-4-fluoro-1-(((S)-oxetan-2-yl)methyl)-1H-benzo[d]imidazole-6-carboxylic acid], the EC50 on GLP-1 receptor came to 150 pM.
Still for that read-out and setting: for `N#CCC1(Cn2c(C[C@H]3CC[C@H](c4cccc(OCc5ccc(Cl)c6cc(F)oc56)n4)CC3)nc3ccc(C(=O)O)cc32)CC1` [Compound 43, 2-(((1r,4r)-4-(6-((4-chloro-2-fluorobenzofuran-7-yl)methoxy)pyridin-2-yl)cyclohexyl)methyl)-1-((1-(cyanomethyl)cyclopropyl)methyl)-1H-benzo[d]imidazole-6-carboxylic acid] the value was 200 pM.
